# Test system: iAstrocytes
# Experiment: Time-lapse imaging of phagocytosis of pHrodoRed-conjugated myelin by iAstrocytes
# Assay type: cell-based, human
# Settings: imaging over 24 h
# Method: FIGS. 3A-3B: (FIG. 3A) iAstrocytes are compatible for study with microglia co-cultures. Cultured iAstrocytes are subsequently incubated with iPSC-derived microglia (Abud et al., 2017). (FIG. 3B) iAstrocytes are labeled with GFAP and iPSC-derived microglia are labeled with Iba1 (light grey). The differentiation protocols for both microglia and astrocytes are serum-free and thus, make them compatible to study together without the confounds of serum activation of glia. Astrocytes phagocytose pHrodoRed-labeled myelin.
# (FIGS. 4A-4C, FIG. 4A: 0 hour; FIG. 4B, 12 hours; and FIG. 4C, 24 hours). Phagocytosis can be visualized by pHrodoRed internalization which is absent at time zero (FIG. 4A). Phagocytosis of pHrodoRed-conjugated myelin is detected in iAstrocytes at 12 h (FIG. 4B), which gradually increases with time (24 h, FIG. 4C). FIG. 4D graphically depicts total red object area (y-axis) versus time in hours (x-axis).
substance,measurement,value
TGFβ: Growth factor stated as necessary for quiescent astrocytes; inhibits myelin phagocytosis by iAstrocytes,effect on phagocytosis of myelin by iAstrocytes,inhibited

# From patent US20250382570A1, “GENERATION AND APPLICATION OF FUNCTIONAL HUMAN ASTROCYTES FROM PLURIPOTENT STEM CELLS” (The Regents of the University of California, priority 2022, published 2025)
